Here are results for 15 molecules from patent US20240343733A1, “COMPOUNDS FOR TARGETING DEGRADATION OF IRAK4 PROTEINS” (BIOGEN MA INC., priority 2021, published 2024).

The structures appear in SMILES notation. Bounds are passed on as bounds.

This assay deals with T1, IRAK4 (Homo sapiens, UniProt Q9NWZ3).
T1 construct: 293Tcells expressing HiBiT-tagged IRAK4 were then added into 384-well plates
T1 sequence (Q9NWZ3 1-460): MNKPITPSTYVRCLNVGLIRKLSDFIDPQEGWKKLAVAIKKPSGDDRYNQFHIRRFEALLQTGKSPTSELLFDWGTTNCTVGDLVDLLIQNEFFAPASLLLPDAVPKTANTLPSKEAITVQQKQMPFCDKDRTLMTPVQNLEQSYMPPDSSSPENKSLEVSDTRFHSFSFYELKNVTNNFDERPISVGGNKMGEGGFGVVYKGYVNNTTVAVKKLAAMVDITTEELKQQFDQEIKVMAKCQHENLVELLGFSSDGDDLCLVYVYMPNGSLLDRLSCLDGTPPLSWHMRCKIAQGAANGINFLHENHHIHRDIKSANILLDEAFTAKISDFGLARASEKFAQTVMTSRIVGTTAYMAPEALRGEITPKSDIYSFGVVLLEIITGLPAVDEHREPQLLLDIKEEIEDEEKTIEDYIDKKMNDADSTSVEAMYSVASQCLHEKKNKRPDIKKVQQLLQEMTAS
In words: IRAK4 Degradation Assay, HiBiT Method. The following applies: 293T cells expressing HiBiT-tagged IRAK4, 6 hours. Format: cell-based. The method in brief: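 Luminescent read-out with Nano-Glo HiBiT lytic reagent after 6 h compound exposure at 37 °C. Cells were HiBiT-IRAK4 knock-in 293T (C-terminal tag), 10,000 per well. Compounds ran as 11-point half-log dilutions from […] highest dose, duplicate wells; DMSO served as negative control.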
`CC(C)Oc1cc2nn(C3CCN(C(=O)CN4CCC(c5ccc(NC6CCC(=O)NC6=O)cc5F)CC4)CC3)cc2cc1C(=O)Nc1cccc(C(F)F)n1` (stereo not drawn) [Example 64, N-(6-(difluoromethyl)pyridin-2-yl)-2-(1-(2-(4-(4-((2,6-dioxopiperidin-3-yl)amino)-2-fluorophenyl)piperidin-1-yl)acetyl)piperidin-4-yl)-6-isopropoxy-2H-indazole-5-carboxamide] showed a 50% degradation concentration (DC50) of 0.5 to 1 µM.
The value for `CC(C)Oc1cc2nn(C3CCN(C(=O)CC4(O)CCN(c5ccc(NC6CCC(=O)NC6=O)cc5)CC4)CC3)cc2cc1C(=O)Nc1cccc(C(F)F)n1` (stereo not drawn) [Example 65, N-(6-(difluoromethyl)pyridin-2-yl)-2-(1-(2-(1-(4-((2,6-dioxopiperidin-3-yl)amino)phenyl)-4-hydroxypiperidin-4-yl)acetyl)piperidin-4-yl)-6-isopropoxy-2H-indazole-5-carboxamide] was 0.01 to 0.1 µM; that for `CC(C)Oc1cc2nn(C3CCN(C(=O)CC4(O)CCN(c5cc(F)c(NC6CCC(=O)NC6=O)cc5F)CC4)CC3)cc2cc1C(=O)Nc1cccc(C(F)F)n1` (stereo not drawn) [Example 66, N-(6-(difluoromethyl)pyridin-2-yl)-2-(1-(2-(1-(4-((2,6-dioxopiperidin-3-yl)amino)-2,5-difluorophenyl)-4-hydroxypiperidin-4-yl)acetyl)piperidin-4-yl)-6-isopropoxy-2H-indazole-5-carboxamide] was 0.01 to 0.1 µM; that for `CC(C)Oc1cc2nn(C3CCN(C(=O)CC4(O)CCN(c5cc(F)c(C6CCC(=O)NC6=O)cc5F)CC4)CC3)cc2cc1C(=O)Nc1cccc(C(F)F)n1` (stereo not drawn) [Example 67, N-(6-(difluoromethyl)pyridin-2-yl)-2-(1-(2-(1-(4-(2,6-dioxopiperidin-3-yl)-2,5-difluorophenyl)-4-hydroxypiperidin-4-yl)acetyl)piperidin-4-yl)-6-isopropoxy-2H-indazole-5-carboxamide] was under 0.01 µM.
The value for `CC(C)Oc1cc2nc(C3CCN(C(=O)CC4(O)CCN(c5ccc(NC6CCC(=O)NC6=O)cc5)CC4)CC3)cn2cc1C(=O)Nc1cccc(C(F)(F)F)n1` (stereo not drawn) [Example 72, 2-[1-[2-[1-[4-[(2,6-dioxo-3-piperidyl)amino]phenyl]-4-hydroxy-4-piperidyl]acetyl]-4-piperidyl]-7-isopropoxy-N-[6-(trifluoromethyl)-2-pyridyl]imidazo[1,2-a]pyridine-6-carboxamide] was 0.01 to 0.1 µM; that for `CC(C)Oc1cc2nc(C3CCN(C(=O)CC4(O)CCN(c5cc(F)c(NC6CCC(=O)NC6=O)cc5F)CC4)CC3)cn2cc1C(=O)Nc1cccc(C(F)(F)F)n1` (stereo not drawn) [Example 74, 2-[1-[2-[1-[4-[(2,6-dioxo-3-piperidyl)amino]-2,5-difluoro-phenyl]-4-hydroxy-4-piperidyl]acetyl]-4-piperidyl]-7-isopropoxy-N-[6-(trifluoromethyl)-2-pyridyl]imidazo[1,2-a]pyridine-6-carboxamide] was 0.01 to 0.1 µM.
The value for `CC(C)Oc1cc2nc(C3CCN(C(=O)CC4(O)CCN(c5cc(Cl)c(NC6CCC(=O)NC6=O)cc5Cl)CC4)CC3)cn2cc1C(=O)Nc1cccc(C(F)F)n1` (stereo not drawn) [Example 75, 2-[1-[2-[1-[2,5-dichloro-4-[(2,6-dioxo-3-piperidyl)amino]phenyl]-4-hydroxy-4-piperidyl]acetyl]-4-piperidyl]-N-[6-(difluoromethyl)-2-pyridyl]-7-isopropoxy-imidazo[1,2-a]pyridine-6-carboxamide] was 0.01 to 0.1 µM; that for `CC(C)Oc1cc2nc(C3CCN(C(=O)CN4CCC(c5cc(F)c(C6CCC(=O)NC6=O)cc5F)CC4)CC3)cn2cc1C(=O)Nc1cccc(C(F)F)n1` (stereo not drawn) [Example 76, N-[6-(difluoromethyl)-2-pyridyl]-2-[1-[2-[4-[4-(2,6-dioxo-3-piperidyl)-2,5-difluoro-phenyl]-1-piperidyl]acetyl]-4-piperidyl]-7-isopropoxy-imidazo[1,2-a]pyridine-6-carboxamide] was 0.01 to 0.1 µM.
The molecule `CC(C)Oc1cc2nc(C3CCN(C(=O)CN4CCC(c5cc(F)c(C6CCC(=O)NC6=O)cc5F)CC4)CC3)cn2cc1C(=O)Nc1cnn2cccnc12` (stereo not drawn) [Example 77, 2-[1-[2-[4-[4-(2,6-dioxo-3-piperidyl)-2,5-difluoro-phenyl]-1-piperidyl]acetyl]-4-piperidyl]-7-isopropoxy-N-pyrazolo[1,5-a]pyrimidin-3-yl-imidazo[1,2-a]pyridine-6-carboxamide] displayed a DC50 of 0.01 to 0.1 µM.
The value for `CC(C)Oc1cc2nc(C3CCN(C(=O)CN4CCC(c5ccc6c(C7CCC(=O)NC7=O)nn(C)c6c5)C(F)(F)C4)CC3)cn2cc1C(=O)Nc1cccc(C(F)F)n1` (stereo not drawn) [Example 78, N-[6-(difluoromethyl)-2-pyridyl]-2-[1-[2-[4-[3-(2,6-dioxo-3-piperidyl)-1-methyl-indazol-6-yl]-3,3-difluoro-1-piperidyl]acetyl]-4-piperidyl]-7-isopropoxy-imidazo[1,2-a]pyridine-6-carboxamide] was 0.01 to 0.1 µM; that for `CC(C)Oc1cc2nc(C3CCN(C(=O)CC4(O)CCN(c5ccc6c(C7CCC(=O)NC7=O)nn(C)c6c5)CC4)CC3)cn2cc1C(=O)Nc1cccc(C(F)F)n1` (stereo not drawn) [Example 79, N-[6-(difluoromethyl)-2-pyridyl]-2-[1-[2-[1-[3-(2,6-dioxo-3-piperidyl)-1-methyl-indazol-6-yl]-4-hydroxy-4-piperidyl]acetyl]-4-piperidyl]-7-isopropoxy-imidazo[1,2-a]pyridine-6-carboxamide] was 0.01 to 0.1 µM.
The value for `CC(C)Oc1cc2nc(C3CCN(C(=O)CN4CCC(c5ccc(C6CCC(=O)NC6=O)cc5F)CC4)CC3)cn2cc1C(=O)Nc1cccc(C(F)F)n1` (stereo not drawn) [Example 80, N-[6-(difluoromethyl)-2-pyridyl]-2-[1-[2-[4-[4-(2,6-dioxo-3-piperidyl)-2-fluoro-phenyl]-1-piperidyl]acetyl]-4-piperidyl]-7-isopropoxy-imidazo[1,2-a]pyridine-6-carboxamide] was 0.01 to 0.1 µM; that for `CC(C)Oc1cc2nc(C3CCN(C(=O)CC4(O)CCN(c5c(F)cc(N[C@H]6CCC(=O)NC6=O)cc5Cl)CC4)CC3)cn2cc1C(=O)Nc1cccc(C(F)F)n1` [Example 82, 2-[1-[2-[1-[2-chloro-4-[[(3S)-2,6-dioxo-3-piperidyl]amino]-6-fluoro-phenyl]-4-hydroxy-4-piperidyl]acetyl]-4-piperidyl]-N-[6-(difluoromethyl)-2-pyridyl]-7-isopropoxy-imidazo[1,2-a]pyridine-6-carboxamide] was 0.01 to 0.1 µM.
The figure for `CC(C)Oc1cc2nc(C3CCN(C(=O)CN4CCC(n5ccc(NC6CCC(=O)NC6=O)n5)CC4)CC3)cn2cc1C(=O)Nc1cccc(C(F)F)n1` (stereo not drawn) [Example 83, N-[6-(difluoromethyl)-2-pyridyl]-2-[1-[2-[4-[3-[(2,6-dioxo-3-piperidyl)amino]pyrazol-1-yl]-1-piperidyl]acetyl]-4-piperidyl]-7-isopropoxy-imidazo[1,2-a]pyridine-6-carboxamide] is 0.01 to 0.1 µM; for `CC(C)Oc1cc2nc(C3CCN(C(=O)CN4CCC(c5ccc(NC6CCC(=O)NC6=O)cn5)CC4)CC3)cn2cc1C(=O)Nc1cccc(C(F)F)n1` (stereo not drawn) [Example 84, N-[6-(difluoromethyl)-2-pyridyl]-2-[1-[2-[4-[5-[(2,6-dioxo-3-piperidyl)amino]-2-pyridyl]-1-piperidyl]acetyl]-4-piperidyl]-7-isopropoxy-imidazo[1,2-a]pyridine-6-carboxamide] it is 0.01 to 0.1 µM.
